PMC6270209, “Synthesis, Antimycobacterial Activity and In Vitro Cytotoxicity of 5-Chloro-N-phenylpyrazine-2-carboxamides” (Molecules, 2013)
≈ marks a conversion by molar mass, not a printed value. Where two headings read alike, the source gives them in different places.

Key:
[1] = system: M. kansasii Hauduroy CNCTC My 235/80; assay: In vitro antimycobacterial activity, microdilution panel method (MIC); format: cell-based, Mycobacterium kansasii; conditions: for MIC: Mycobacterium kansasii; for MIC / Antimycobacterial activity MIC, M. kansasii: M. kansasii Hauduroy CNCTC My 235/80
[2] = system: M. tuberculosis H37Rv CNCTC My 331/88; assay: as above; format: cell-based, Mycobacterium tuberculosis
M. avium CNCTC My 152/73 = assay: as above; format: cell-based, Mycobacterium avium; conditions: for MIC: Mycobacterium avium
HepG2 cells [3] = conditions: for IC50: read-out: Cytotoxicity IC50, HepG2 cells, 24 h incubation (Table 1)
HepG2 cells [4] = assay: cells; conditions: Homo sapiens, HepG2, read-out: HepG2 IC50
[5] = system: M. avium ssp. avium Chester CNCTC My 80/72; assay: In vitro antimycobacterial activity, microdilution panel method (MIC); format: cell-based, Mycobacterium avium; conditions: for MIC: Mycobacterium avium
[6] = system: renal cell adenocarcinoma (ACHN) cell line; assay: cells; conditions: Homo sapiens, 24 h, read-out: ACHN IC50
in vitro = conditions: human
[7] = system: Chinese hamster ovary (CHO-K1) cell line; assay: cells; conditions: Cricetulus griseus, CHO-K1, 24 h, read-out: CHO-K1 IC50
[8] = Solubility in antimycobacterial testing medium (observation); format: physicochemical
[9] = RP-HPLC, C18, MeOH 70% / H2O 30%, 30 °C
[10] = system: renal cell adenocarcinoma (ACHN) cell line
[11] = system: Chinese hamster ovary (CHO-K1) cell line
HepG2 cells [12] = conditions: comparable HepG2 cytotoxicity assay; cited from earlier work
[13] = Mycobacterium tuberculosis, H37RV, M. tuberculosis H37Rv, retest with extended dilution scale up to 0.39 µg/mL, read-out: Antimycobacterial activity MIC, M. tbc (confirmation retest, value in parentheses)
[14] = Mycobacterium tuberculosis, H37RV, MIC converted to molar concentrations, read-out: M. tbc H37Rv MIC
[15] = Mycobacterium tuberculosis, H37RV, pH 5.6, M. tuberculosis H37Rv, primary test, dilution scale 100–[…], Šula's medium pH 5.6, read-out: Antimycobacterial activity MIC, M. tbc
[16] = SI calculated for M. tbc as IC50 (HepG2)/MIC (in μM) using the lower MIC values (Table 1)
[17] = Mycobacterium tuberculosis, H37RV, read-out: M. tbc H37Rv MIC (µM), MIC converted to molar concentrations
[18] = M. tuberculosis H37Rv, primary test, dilution scale 100–[…], Šula's medium pH 5.6
[19] = M. tuberculosis H37Rv, retest with extended dilution scale up to 0.39 µg/mL

Compound | MIC [1] | MIC [2, 15] | MIC (M. avium CNCTC My 152/73) | Cytotoxicity SI (HepG2 cells [3]; [16]) | MIC [5] | IC50 (in vitro) | Antimycobacterial activity MIC, M. avium (M. avium CNCTC My 152/73) | Lipophilicity logk [9] | Antimycobacterial activity MIC, M. avium [5] | further results
O=C(Nc1ccc(O)cc1)c1cnc(Cl)cn1 [Compound 4, 5-Chloro-N-(4-hydroxyphenyl)pyrazine-2-carboxamide] | 100 µg/mL (≈ 401 µM) | 3.13 µg/mL | 50 µg/mL (≈ 200 µM) | 5.47 | > 100 µg/mL | 68.6 µM | – | – | – | Activity against M. kansasii (in words) [1]: inactive; MIC [2, 13]: 12.5 µg/mL; MIC [2, 14]: 12.5 µM; IC50 (HepG2 cells [4]): 69 µM; IC50 [6]: 100 ± 39 µM; IC50 [7]: 48 ± 4 µM
NC(=O)c1cnc(Cl)cn1 [Compound 5-Cl-PZA, 5-chloropyrazine-2-carboxamide, reference compound] | 12.5 µg/mL (≈ 79.3 µM) | 25 µg/mL | > 100 µg/mL | – | > 100 µg/mL | 1590 µM | – | – | – | MIC [2, 17]: 159 µM; Cytotoxicity SI (HepG2 cells [3]; human): 10.0; IC50 (HepG2 cells [4]): 1590 µM; IC50 [6]: 540 ± 120 µM; IC50 [7]: 290 ± 43 µM
COc1ccc(NC(=O)c2cnc(Cl)cn2)c(OC)c1 [Compound 5] | > 50 µg/mL | > 50 µg/mL | > 50 µg/mL | – | > 50 µg/mL | – | – | – | – | Antimycobacterial activity against M. tbc H37Rv (in words) [2]: inactive; Solubility in testing medium (in words) [8]: Insufficient solubility
O=C(Nc1ccccc1F)c1cnc(Cl)cn1 [Compound 9] | – | – | – | – | – | – | >100 µg/mL | 0.490 | >100 µg/mL | Antimycobacterial activity MIC, M. kansasii [1]: 12.5 µg/mL; Antimycobacterial activity MIC, M. tbc [2, 18]: 6.25 µg/mL
O=C(Nc1ccccc1Cl)c1cnc(Cl)cn1 [Compound 12] | – | – | – | 0.58 | – | – | >100 µg/mL | 0.819 | >100 µg/mL | Antimycobacterial activity MIC, M. tbc [2, 18]: 3.13 µg/mL; Antimycobacterial activity MIC, M. tbc (confirmation retest, value in parentheses) [2, 19]: 0.78 µg/mL; IC50 (HepG2 cells [3]): 6.72 µM
O=C(Nc1cccc(Cl)c1)c1cnc(Cl)cn1 [Compound 13] | – | – | – | – | – | – | 25 µg/mL | 0.587 | 25 µg/mL | Antimycobacterial activity MIC, M. kansasii [1]: 25 µg/mL; Antimycobacterial activity MIC, M. tbc [2, 18]: 6.25 µg/mL; Antimycobacterial activity MIC, M. tbc (confirmation retest, value in parentheses) [2, 19]: 3.13 µg/mL
O=C(Nc1cc(Cl)c(Cl)cc1Cl)c1cnc(Cl)cn1 [Compound 15, 5-Chloro-N-(2,4,5-trichlorophenyl)pyrazine-2-carboxamide] | > 100 µg/mL | > 100 µg/mL | > 100 µg/mL | – | > 100 µg/mL | – | – | – | – | Antimycobacterial activity against M. tbc H37Rv (in words) [2]: inactive or weakly active; melting point: 189.3 to 192.4 °C; Solubility in testing medium (in words) [8]: low solubility
O=C(Nc1ccc(Br)cc1)c1cnc(Cl)cn1 [Compound 17] | – | – | – | – | – | – | >100 µg/mL | 0.660 | >100 µg/mL | Antimycobacterial activity MIC, M. kansasii [1]: 6.25 µg/mL; Antimycobacterial activity MIC, M. tbc [2, 18]: 3.13 µg/mL
O=C(Nc1ccc(I)cc1Cl)c1cnc(Cl)cn1 [Compound 18, 5-Chloro-N-(2-chloro-4-iodophenyl)pyrazine-2-carboxamide] | 1.56 µg/mL (≈ 3.96 µM) | 12.5 µg/mL | > 50 µg/mL | – | > 50 µg/mL | – | – | – | – | Activity against M. kansasii (in words) [1]: most active; Antimycobacterial activity against M. tbc H37Rv (in words) [2]: inactive or weakly active; melting point: 175.6 to 177.3 °C; Solubility in testing medium (in words) [8]: low solubility
Cc1ccc(Cl)c(NC(=O)c2cnc(Cl)cn2)c1 [Compound 20, 5-Chloro-N-(2-chloro-5-methylphenyl)pyrazine-2-carboxamide] | 25 µg/mL (≈ 88.6 µM) | 1.56 µg/mL | > 100 µg/mL | 2.86 | > 100 µg/mL | 15.8 µM | – | – | – | –
O=C(Nc1cc(Cl)ccc1O)c1cnc(Cl)cn1 [Compound 21, 5-Chloro-N-(5-chloro-2-hydroxyphenyl)pyrazine-2-carboxamide] | 12.5 µg/mL (≈ 44 µM) | 1.56 µg/mL | 12.5 µg/mL (≈ 44 µM) | 7.39 | 12.5 µg/mL (≈ 44 µM) | 40.6 µM | 12.5 µg/mL | – | 12.5 µg/mL | Antimycobacterial activity MIC, M. kansasii [1]: 12.5 µg/mL; MIC [2, 13]: 6.25 µg/mL; MIC [2, 14]: 5.5 µM; IC50 (HepG2 cells [4]): 41 µM; IC50 [6]: 51 ± 14 µM; IC50 [7]: 39 ± 2 µM
O=C(Nc1ccc(O)c(Cl)c1)c1cnc(Cl)cn1 [Compound 22, 5-Chloro-N-(3-chloro-4-hydroxyphenyl)pyrazine-2-carboxamide] | > 100 µg/mL | 3.13 µg/mL | 25 µg/mL (≈ 88 µM) | 1.17 | 50 µg/mL (≈ 176 µM) | 12.9 µM | – | – | – | MIC [2, 13]: 0.39 µg/mL
O=C(Nc1cccc([N+](=O)[O-])c1)c1cnc(Cl)cn1 [Compound 25] | – | – | – | 2.91 | – | – | >100 µg/mL | 0.344 | >100 µg/mL | Antimycobacterial activity MIC, M. tbc [2, 18]: 3.13 µg/mL; IC50 (HepG2 cells [3]): 32.7 µM
O=C(Nc1cccc(C(F)(F)F)c1)c1cnc(Cl)cn1 [Compound 28, 5-Chloro-N-(3-(trifluoromethyl)phenyl)pyrazine-2-carboxamide] | 12.5 µg/mL (≈ 41.4 µM) | 3.13 µg/mL | > 100 µg/mL | 3.99 | > 100 µg/mL | 41.4 µM | – | – | – | MIC [2, 13]: 6.25 µg/mL
O=C(Nc1ccc(C(F)(F)F)cc1)c1cnc(Cl)cn1 [Compound 29, 5-Chloro-N-(4-(trifluoromethyl)phenyl)pyrazine-2-carboxamide] | 12.5 µg/mL (≈ 41.4 µM) | 1.56 µg/mL | > 100 µg/mL | 1.64 | > 100 µg/mL | 8.5 µM | – | – | – | MIC [2, 13]: 3.13 µg/mL
O=C(Nc1ccc(C(=O)O)c(O)c1)c1cnc(Cl)cn1 [Compound 30, 4-(5-Chloropyrazine-2-carboxamido)-2-hydroxybenzoic acid] | – | 3.13 µg/mL | > 100 µg/mL | – | > 100 µg/mL | – | – | – | – | MIC ([2]; MIC converted to molar concentrations, read-out: M. tbc H37Rv MIC): 10.7 µM; Activity in comparison with PZA (times more active) ([2]; MIC for M. tbc H37Rv in µM compared): 5–10 times; MIC [2, 17]: 10 µM; melting point: 240 to 244 °C (dec.); Cytotoxicity rating in ACHN cell line (in words) [10]: non-toxic; IC50 [6]: 371 ± 96 µM; Cytotoxicity rating in CHO-K1 cell line (in words) [11]: non-toxic; IC50 [7]: 502 ± 122 µM
NNC(=O)c1ccncc1 [INH, isoniazid, reference compound] | 12.5 to 25 µg/mL (≈ 91.1 to 182 µM) | 0.39 to 0.78 µg/mL | 3.13 to 6.25 µg/mL (≈ 22.8 to 45.6 µM) | – | 12.5 to 25 µg/mL (≈ 91.1 to 182 µM) | – | – | −0.743 | – | IC50 (HepG2 cells [12]): 79000 µM
NC(=O)c1cnccn1 [PZA, pyrazinamide, reference compound] | > 100 µg/mL | 6.25 to 12.5 µg/mL | > 100 µg/mL | – | > 100 µg/mL | > 10000 µM | – | −0.687 | – | MIC [2, 17]: 51 to 102 µM; Cytotoxicity SI (HepG2 cells [3]; human): >196
